Measurements reported in ChEMBL document CHEMBL1201862, “PubChem BioAssay data set” (2004).
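Briefly, cells in 96-well plates were exposed to five compound concentrations for 48 h, and endpoints were estimated by linear interpolation. GI50 is the concentration that inhibits growth by half.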 Activity calls are given as the source filed them. Rule as the data show it: active = GI50 up to about 1.1 µM and inactive = higher.

Columns and labels:
Test in all cases: NCI tumour cell line growth inhibition, 48 h
ACHN = test system: ACHN
SF-539 = test system: SF-539
SK-MEL-28 = test system: SK-MEL-28
RXF 393 = test system: RXF 393
NCI-H23 = test system: NCI-H23
A498 = test system: A498
HCT-116 = test system: HCT-116
HL-60 = test system: HL-60
NCI-H522 = test system: NCI-H522
SN12C = test system: SN12C
Malme-3M = test system: Malme-3M
EKVX = test system: EKVX
OVCAR-5 = test system: OVCAR-5
MDA-MB-435 = test system: MDA-MB-435
UO-31 = test system: UO-31
K562 = test system: K562
DU-145 = test system: DU-145
UACC-257 = test system: UACC-257
SNB-19 = test system: SNB-19
NCI-H460 = test system: NCI-H460

SMILES | GI50 (ACHN) | GI50 (SF-539) | GI50 (SK-MEL-28) | GI50 (RXF 393) | GI50 (NCI-H23) | GI50 (A498) | GI50 (HCT-116) | GI50 (HL-60) | GI50 (NCI-H522) | GI50 (SN12C) | GI50 (Malme-3M) | GI50 (EKVX) | GI50 (OVCAR-5) | GI50 (MDA-MB-435) | GI50 (UO-31) | GI50 (K562) | GI50 (DU-145) | GI50 (UACC-257) | GI50 (SNB-19) | GI50 (NCI-H460)
CCOC(=O)c1nc2ccc(C(F)(F)F)cc2nc1Nc1cc(OC)c(OC)c(OC)c1 | > 100 µM (inactive) | > 100 µM (inactive) | > 100 µM (inactive) | > 100 µM (inactive) | > 100 µM (inactive) | > 100 µM (inactive) | > 100 µM (inactive) | > 100 µM (inactive) | > 100 µM (inactive) | > 100 µM (inactive) | > 100 µM (inactive) | > 100 µM (inactive) | > 100 µM (inactive) | > 100 µM (inactive) | > 100 µM (inactive) | > 100 µM (inactive) | > 100 µM (inactive) | > 100 µM (inactive) | > 100 µM (inactive) | > 100 µM (inactive)
O=C(c1ccco1)N(C(=S)OC12CC3CC(CC(C3)C1)C2)c1ccccc1 | 27.1 µM (inactive) | 20.2 µM (inactive) | 37.9 µM (inactive) | 13.7 µM (inactive) | 27.8 µM (inactive) | 23.3 µM (inactive) | 19.9 µM (inactive) | 19.3 µM (inactive) | 19.9 µM (inactive) | 27.9 µM (inactive) | 26.8 µM (inactive) | 18.8 µM (inactive) | 39.7 µM (inactive) | 28.9 µM (inactive) | 24.9 µM (inactive) | 28.6 µM (inactive) | 52.8 µM (inactive) | 30.9 µM (inactive) | 34.7 µM (inactive) | 30.8 µM (inactive)
CCOP(=O)(OCC)C(C)(CC)NC (stereo not drawn) | > 100 µM (inactive) | > 100 µM (inactive) | > 100 µM (inactive) | > 100 µM (inactive) | > 100 µM (inactive) | > 100 µM (inactive) | > 100 µM (inactive) | > 100 µM (inactive) | > 100 µM (inactive) | > 100 µM (inactive) | > 100 µM (inactive) | > 100 µM (inactive) | > 100 µM (inactive) | > 100 µM (inactive) | > 100 µM (inactive) | > 100 µM (inactive) | > 100 µM (inactive) | > 100 µM (inactive) | > 100 µM (inactive) | > 100 µM (inactive)
COc1c(-c2nc3ccc(N4CCN(C)CC4)cc3[nH]2)cc(OC)c2[nH]c(COC(C)=O)nc12 | 63.4 µM (inactive) | 36.6 µM (inactive) | > 100 µM (inactive) | 11.8 µM (inactive) | 65.9 µM (inactive) | > 100 µM (inactive) | 32.4 µM (inactive) | 59.8 µM (inactive) | 48.9 µM (inactive) | 41.4 µM (inactive) | 25.1 µM (inactive) | 98.4 µM (inactive) | > 100 µM (inactive) | 37.8 µM (inactive) | 42.3 µM (inactive) | 56.6 µM (inactive) | 26.1 µM (inactive) | 53.5 µM (inactive) | 36 µM (inactive) | 43.1 µM (inactive)
O=[N+]([O-])c1ccc(S[C@@H]2[C@H]3c4c(-c5ccccc5)[nH]c(-c5ccccc5)c4[C@@H]2C[C@H]3Cl)cc1 | 3.7 µM (inactive) | 6.75 µM (inactive) | 18.1 µM (inactive) | 0.938 µM (active) | 2.38 µM (inactive) | 4.82 µM (inactive) | 1.76 µM (inactive) | 3.17 µM (inactive) | 2.9 µM (inactive) | 2.94 µM (inactive) | 10.6 µM (inactive) | – | 9.95 µM (inactive) | 3.58 µM (inactive) | 1.62 µM (inactive) | – | 3.31 µM (inactive) | 14.8 µM (inactive) | 4.6 µM (inactive) | 2.4 µM (inactive)
O=c1c2cc([N+](=O)[O-])ccc2[nH]n1Cc1ccccn1 | > 100 µM (inactive) | > 100 µM (inactive) | > 100 µM (inactive) | > 100 µM (inactive) | > 100 µM (inactive) | > 100 µM (inactive) | > 100 µM (inactive) | > 100 µM (inactive) | > 100 µM (inactive) | > 100 µM (inactive) | > 100 µM (inactive) | > 100 µM (inactive) | > 100 µM (inactive) | > 100 µM (inactive) | > 100 µM (inactive) | > 100 µM (inactive) | > 100 µM (inactive) | > 100 µM (inactive) | > 100 µM (inactive) | > 100 µM (inactive)
NC(=S)NNCC(=O)CC(O)(C(F)(F)F)C(F)(F)Cl (stereo not drawn) | 54.5 µM (inactive) | > 100 µM (inactive) | > 100 µM (inactive) | 38.5 µM (inactive) | > 100 µM (inactive) | > 100 µM (inactive) | > 100 µM (inactive) | 97.3 µM (inactive) | > 100 µM (inactive) | – | > 100 µM (inactive) | > 100 µM (inactive) | > 100 µM (inactive) | > 100 µM (inactive) | > 100 µM (inactive) | > 100 µM (inactive) | > 100 µM (inactive) | > 100 µM (inactive) | > 100 µM (inactive) | 63.2 µM (inactive)
CC(C)(C)C(=O)Oc1ccc(/C=C/C(=O)c2ccc(OC(=O)C(C)(C)C)cc2)cc1 | > 100 µM (inactive) | 33 µM (inactive) | 97.3 µM (inactive) | 38.8 µM (inactive) | 35.7 µM (inactive) | 81.5 µM (inactive) | 23.3 µM (inactive) | 47 µM (inactive) | 3.12 µM (inactive) | 42.8 µM (inactive) | > 100 µM (inactive) | 81.1 µM (inactive) | > 100 µM (inactive) | 55.2 µM (inactive) | – | 26.3 µM (inactive) | 41 µM (inactive) | 60.5 µM (inactive) | 45.2 µM (inactive) | > 100 µM (inactive)
CC(C)C[C@H](NC(=O)[C@H](Cc1cccc2ccccc12)NS(=O)(=O)c1cccc2cccnc12)B(O)O | 0.0327 µM (active) | < 0.01 µM (active) | – | < 0.015 µM (active) | < 0.0226 µM (active) | < 0.0147 µM (active) | < 0.0133 µM (active) | < 0.01 µM (active) | 0.0106 µM (active) | < 0.0122 µM (active) | < 0.01 µM (active) | 0.372 µM (active) | < 0.0142 µM (active) | < 0.01 µM (active) | 0.279 µM (active) | < 0.0196 µM (active) | 0.0445 µM (active) | 0.0103 µM (active) | < 0.0225 µM (active) | 0.0893 µM (active)
CCCCCc1cc2cc3c(c(O)c2c(=O)[nH]1)C1(CCC3)C(=O)c2c(O)c3c(c(O)c2C1=O)C(=O)C(OC)=CC3=O (stereo not drawn) | 0.552 µM (active) | – | 1.29 µM (inactive) | 0.673 µM (active) | 0.828 µM (active) | 2.18 µM (inactive) | 0.561 µM (active) | 0.478 µM (active) | 0.59 µM (active) | 1.01 µM (active) | 0.468 µM (active) | 0.361 µM (active) | 2.02 µM (inactive) | 0.908 µM (active) | 0.579 µM (active) | 0.42 µM (active) | 0.822 µM (active) | 0.783 µM (active) | 1.49 µM (inactive) | 0.757 µM (active)
COc1ccc(/C=N\NC(=O)Nc2cccc3ccccc23)cc1 | 14.5 µM (inactive) | 14 µM (inactive) | > 100 µM (inactive) | > 10 µM (inactive) | 34.6 µM (inactive) | 18.2 µM (inactive) | 13.7 µM (inactive) | 4.82 µM (inactive) | 15.6 µM (inactive) | 49.3 µM (inactive) | 26.2 µM (inactive) | 26.9 µM (inactive) | > 100 µM (inactive) | 4.06 µM (inactive) | 35.3 µM (inactive) | – | 38.5 µM (inactive) | 34.9 µM (inactive) | 17.1 µM (inactive) | 10 µM (inactive)
COc1cc(C2CC(C)(O)Oc3cc4c(cc32)OCO4)cc(OC)c1OC (stereo not drawn) | 0.708 µM (active) | 0.195 µM (active) | 0.569 µM (active) | 0.137 µM (active) | 0.474 µM (active) | 4.6 µM (inactive) | 0.449 µM (active) | 0.247 µM (active) | 0.266 µM (active) | 0.977 µM (active) | 0.205 µM (active) | 5.36 µM (inactive) | 10.9 µM (inactive) | 0.169 µM (active) | – | 0.386 µM (active) | 0.546 µM (active) | 0.822 µM (active) | 0.617 µM (active) | 0.389 µM (active)
N#CC1=C(N)N(/N=C/c2ccco2)C(c2ccco2)C1(C#N)C#N (stereo not drawn) | 15.6 µM (inactive) | 22.1 µM (inactive) | – | 10.7 µM (inactive) | 19.6 µM (inactive) | 16 µM (inactive) | 12.7 µM (inactive) | 3.35 µM (inactive) | 15.3 µM (inactive) | 26.9 µM (inactive) | 18.9 µM (inactive) | 19.5 µM (inactive) | 20.3 µM (inactive) | 21.3 µM (inactive) | 18.6 µM (inactive) | 5.7 µM (inactive) | 17.7 µM (inactive) | 16.3 µM (inactive) | 20.4 µM (inactive) | –
Cc1nc2ccc(F)cc2c2c1CCS2 | 73.6 µM (inactive) | > 100 µM (inactive) | 80.5 µM (inactive) | 18.5 µM (inactive) | > 100 µM (inactive) | > 100 µM (inactive) | 46.6 µM (inactive) | 24 µM (inactive) | 75.5 µM (inactive) | – | 84.5 µM (inactive) | 26.2 µM (inactive) | – | 35.8 µM (inactive) | 65.9 µM (inactive) | 34.6 µM (inactive) | > 100 µM (inactive) | 71.9 µM (inactive) | 30.3 µM (inactive) | 48.2 µM (inactive)
